# Molecular target: T1, RORγt (Homo sapiens, UniProt P51449)
# T1 construct: Prepare 4×RORgt-LBD in 1× buffer
# T1 sequence (P51449 269-508 limits assumed): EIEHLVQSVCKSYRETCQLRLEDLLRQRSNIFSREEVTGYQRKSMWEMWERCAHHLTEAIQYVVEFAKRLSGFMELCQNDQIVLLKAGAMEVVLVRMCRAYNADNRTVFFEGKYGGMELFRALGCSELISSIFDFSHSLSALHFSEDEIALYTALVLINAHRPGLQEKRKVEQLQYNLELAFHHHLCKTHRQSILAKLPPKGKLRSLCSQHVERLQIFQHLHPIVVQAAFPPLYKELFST
# Experiment: Fluorescence resonance energy transfer (FRET) assay of inhibitory activity on RORγt
# Assay type: biochemical
# Conditions: RORgt-LBD GST with SRC peptide
# Protocol: Fluorescence resonance energy transfer (FRET) experiment was performed to assay the inhibitory activity of the compound of the present invention on RORγt.
# 1) Preparation of DMSO stock solutions of the compounds: All compounds were dissolved in DMSO to prepare 10 mM stock solutions.
# 2) Compound storage: After the compound was dissolved in DMSO, the solution can be stored in a desiccator at room temperature for three months. For long-term storage, the solution should be put in a −20° C. refrigerator.
# 3) Preparation of working solution: • a) Positive control compound AZD0284: Starting from 500 µM, the solution was diluted serially by 3-folds with DMSO to obtain a 10-concentration gradient, each concentration with 3 replicate wells. 2 wells were pipetted. The gradiently diluted compound was diluted in a reaction buffer to obtain a 4× working solution (starting from 40 μM, diluted gradiently by 3-folds) of the positive control compound. • b) Compounds to be tested: Starting from 500 μM, the solution was diluted serially by 3-folds with DMSO to obtain a 10-concentration gradient, each concentration with 3 replicate wells. 2 wells were pipetted. The gradiently diluted compound was diluted in a reaction buffer to obtain a 4× working solution ([…], diluted gradiently by 3-folds) of the compounds to be tested. • c) Prepare a 4× negative control (8% DMSO). • d) Centrifuge the plate at 1000 rpm for 1 min.
# 1) Prepare 4× serially diluted compounds in 1× buffer.
# 2) Add 5 μl of the 4× serially diluted compound (prepared in step 1) to a 384 assay plate (784075, Greiner).
# 3) Prepare 4×RORgt-LBD in 1× buffer.
# 4) Add 5 μl of the 4×RORgt-LBD (prepared in step 3) to the 384 assay plate (prepared in step 2).
# 5) Incubate the assay plate for 15 min at room temperature, protected from light.
# 6) Prepare a 2× mixture of SRC, anti-GST Eu and streptavidin-d2 in 1× […].
# 7) Add 10 μl of the 2× mixture (prepared in step 6) to the 384 assay plate (prepared in step 4).
# 8) Centrifuge the 384 assay plates at 1000 g for 1 min.
# 9) Incubate for 3 h at room temperature, protected from light.
# 10) Read the plate at wavelengths of 665 nm and 615 nm on an Envision 2104 plate reader.
# Relative ratio (RR): Calculate the relative ratio (response value at 665 nm/response value at 615 nm-response value in blank background) of each well.
# Inhibition rate %=[1−(fluorescence detection value of the compound−fluorescence detection average of the positive compound)/(fluorescence detection average of the negative control−fluorescence detection average of the positive compound)]×100
# Calculate the IC50 and dose-response curve of the compound: The IC50 and dose-response curve of the compound were obtained via Graphpad 8.0 by calculating the inhibition rate of the compound and the log value of the compound concentration.
row,SMILES,IC50 [µM]
1,CCS(=O)(=O)c1ccc(CC(=O)Nc2ccc(C(=O)C(C)(C)c3ccc(F)cc3)nc2)cc1 [Compound I-4],0.001 to 0.01
2,CCS(=O)(=O)c1ccc(CC(=O)Nc2ccc(C(=O)C(C)(C)c3ccc(Br)cc3)nc2)cc1 [Compound I-5],0.001 to 0.01
3,"CCS(=O)(=O)c1ccc(CC(=O)Nc2ccc(C(=O)C(C)(C)c3ccc(F)c(Cl)c3)nc2)cc1 [Compound I-6, N-(6-(2-(3-chloro-4-fluorophenyl)-2-methylpropionyl)pyridin-3-yl)-2-(4-(ethylsulfonyl)phenyl) acetamide]",0.001 to 0.01
4,"CCS(=O)(=O)c1ccc(CC(=O)Nc2ccc(C(=O)C3(c4ccc(Cl)cc4)CCC3)nc2)cc1 [Compound I-8, N-(6-(1-(4-chlorophenyl)cyclobutane-1-carbonyl)pyridin-3-yl)-2-(4-(ethylsulfonyl)phenyl)acetamide]",0.001 to 0.01
5,"CCS(=O)(=O)c1ccc(CC(=O)Nc2ccc(C(=O)C(C)(C)c3cccc(C#N)c3)nc2)cc1 [Compound I-9, N-[6-[2-(3-cyanophenyl)-2-methylpropionyl]-3-pyridyl]-2-(4-ethylsulfonylphenyl)acetamide]",0.001 to 0.01
6,"CCS(=O)(=O)c1ccc(CC(=O)Nc2ccc(C(=O)C(C)(C)c3ccccn3)nc2)cc1 [Compound I-20, 2-(4-(ethylsulfonyl)phenyl)-N-(6-(2-methyl-2-(pyridin-2-yl)propanoyl)pyridin-3-yl)acetamide]",0.01 to 0.05
7,"CCS(=O)(=O)c1ccc(CC(=O)Nc2ccc(C(=O)C(C)(C)c3cnn(C)c3)nc2)cc1 [Compound I-23, 2-(4-(ethylsulfonyl)phenyl)-N-(6-(2-methyl-2-(1-methyl-1H-pyrazol-4-yl)propionyl)pyridin-3-yl)acetamide]",0.01 to 0.05
8,"CCS(=O)(=O)c1ccc(CC(=O)Nc2ccc(C(=O)C(C)(C)c3ccc(Cl)cc3)nc2)nc1 [Compound I-24, N-(6-(2-(4-chlorophenyl)-2-methylpropionyl)pyridin-3-yl)-2-(5-(ethylsulfonyl)pyridin-2-yl)acetamide]",0.01 to 0.05
9,"CCS(=O)(=O)c1ccc(CC(=O)Nc2ccc(C(=O)C(C)(C)c3ccc(C(F)(F)F)cn3)nc2)cc1 [Compound I-25, 2-(4-(ethylsulfonyl)phenyl)-N-(6-(2-methyl-2-(5-(trifluoromethyl)pyridin-2-yl)propionyl)pyridin-3-yl)acetamide]",0.001 to 0.01
10,CCS(=O)(=O)c1ccc(CC(=O)Nc2ccc(C(=O)C(C)(C)c3ccnc(C)c3)nc2)cc1 [Compound I-29],0.001 to 0.01
11,CCS(=O)(=O)c1ccc(CC(=O)Nc2ccc(C(=O)C(C)(C)c3ccc(C)cn3)nc2)cc1 [Compound I-30],0.001 to 0.01
12,CCS(=O)(=O)c1ccc(CC(=O)Nc2ccc(C(=O)C(C)(C)c3ccc(Cl)cn3)nc2)cc1 [Compound I-31],0.001 to 0.01
13,CCS(=O)(=O)c1ccc(CC(=O)Nc2ccc(C(=O)C(C)(C)c3cnn(CC(F)F)c3)nc2)cc1 [Compound I-34],0.1 to 1
14,CCS(=O)(=O)c1ccc(CC(=O)Nc2ccc(C(=O)C3(c4ccc(Cl)cc4)CC(F)(F)C3)nc2)cc1 [Compound I-35],0.001 to 0.01
15,CCS(=O)(=O)c1ccc(CC(=O)Nc2ccc(C(=O)C(C)(C)n3cc(C)cn3)nc2)cc1 [Compound I-37],0.1 to 1

# Results, then the compound that gave them:
row,IC50 [µM],SMILES
1,0.001 to 0.01,"CCS(=O)(=O)c1ccc(CC(=O)Nc2ccc(C(=O)C(C)(C)c3cccc(Cl)c3)nc2)cc1 [Compound I-1, N-[6-[2-(3-chlorophenyl)-2-methyl-propionyl]-3-pyridyl]-2-(4-ethylsulfonylphenyl)acetamide]"
2,0.01 to 0.05,"CCS(=O)(=O)c1ccc(CC(=O)Nc2ccc(C(=O)C(C)(C)c3ccc(Cl)cc3)cn2)cc1 [Compound I-2, N-[5-[2-(4-chlorophenyl)-2-methyl-propionyl]-2-pyridyl]-2-(4-ethylsulfonylphenyl)acetamide]"
3,0.01 to 0.05,"CCS(=O)(=O)c1ccc(CC(=O)Nc2ccc(C(=O)C(C)(C)c3ccc(Cl)cc3)nc2)cc1 [Compound I-3, N-[6-[2-(4-chlorophenyl)-2-methylpropionyl]-3-pyridyl]-2-(4-ethylsulfonylphenyl)acetamide]"
4,0.01 to 0.05,"CCS(=O)(=O)c1ccc(CC(=O)Nc2ccc(C(=O)C(C)(C)c3cccnc3)nc2)cc1 [Compound I-7, 2-(4-(ethylsulfonyl)phenyl)-N-(6-(2-methyl-2-(pyridin-3-yl)propanoyl)pyridin-3-yl)acetamide]"
5,0.001 to 0.01,"CCS(=O)(=O)c1ccc(CC(=O)Nc2ccc(C(=O)C(C)(C)c3cccc(Br)c3)nc2)cc1 [Compound I-10, N-[6-[2-(3-bromophenyl)-2-methylpropionyl]-3-pyridyl]-2-(4-ethylsulfonylphenyl)acetamide]"
6,0.001 to 0.01,"CCS(=O)(=O)c1ccc(CC(=O)Nc2ccc(C(=O)C3(c4ccc(Cl)cc4)CC3)nc2)cc1 [Compound I-11, N-(6-(1-(4-chlorophenyl)cyclopropane-1-carbonyl)pyridin-3-yl)-2-(4-(ethylsulfonyl)phenyl)acetamide]"
7,0.001 to 0.01,"CCS(=O)(=O)c1ccc(CC(=O)Nc2ccc(C(=O)C(C)(C)c3ccc(F)cc3F)nc2)cc1 [Compound I-12, N-(6-(2-(2,4-difluorophenyl)-2-methylpropionyl)pyridin-3-yl)-2-(4-(ethylsulfonyl)phenyl)acetamide]"
8,0.001 to 0.01,CCS(=O)(=O)c1ccc(CC(=O)Nc2ccc(C(=O)C(C)(C)c3ccc(C(F)(F)F)cc3)nc2)cc1 [Compound I-13]
9,0.001 to 0.01,"CCS(=O)(=O)c1ccc(CC(=O)Nc2ccc(C(=O)C(C)c3ccc(Cl)cc3)nc2)cc1 (stereo not shown) [Compound I-14, N-(6-(2-(4-chlorophenyl)propionyl)pyridin-3-yl)-2-(4-(ethylsulfonyl)phenyl)acetamide]"
10,0.001 to 0.01,CCS(=O)(=O)c1ccc(CC(=O)Nc2ccc(C(=O)C(C)(C)c3ccc(F)c(Br)c3)nc2)cc1 [Compound I-15]
11,0.001 to 0.01,CCS(=O)(=O)c1ccc(CC(=O)Nc2ccc(C(=O)C(C)(C)c3ccncc3)nc2)cc1 [Compound I-19]
12,0.001 to 0.01,"CCS(=O)(=O)c1ccc(CC(=O)Nc2ccc(C(=O)C(C)(C)c3ccc(F)c(Cl)c3)nc2)nc1 [Compound I-26, N-(6-(2-(3-chloro-4-fluorophenyl)-2-methylpropionyl)pyridin-3-yl)-2-(5-(ethylsulfonyl)pyridin-2-yl)acetamide]"
13,0.001 to 0.01,"CCS(=O)(=O)c1ccc(CC(=O)Nc2ccc(C(=O)C(C)(C)c3cc(Cl)cc(C#N)c3)nc2)cc1 [Compound I-27, N-(6-(2-(3-chloro-5-cyanophenyl)-2-methylpropionyl)pyridin-3-yl)-2-(4-(ethylsulfonyl)phenyl) acetamide]"
14,0.01 to 0.05,CCS(=O)(=O)c1ccc(CC(=O)Nc2ccc(C(=O)C(C)(C)c3ccc(F)cn3)nc2)cc1 [Compound I-28]
15,0.01 to 0.05,"CCS(=O)(=O)c1ccc(CC(=O)Nc2ccc(C(=O)C(C)(C)c3cncc(Cl)c3)nc2)cc1 [Compound I-32, N-(6-(2-(5-chloropyridin-3-yl)-2-methylpropionyl)pyridin-3-yl)-2-(4-(ethylsulfonyl)phenyl)acetamide]"
16,0.01 to 0.05,"CCS(=O)(=O)c1ccc(CC(=O)Nc2ccc(C(=O)C(C)(C)c3cnn(CC(F)(F)F)c3)nc2)cc1 [Compound I-33, 2-(4-(ethylsulfonyl)phenyl)-N-(6-(2-methyl-2-(1-(2,2,2-trifluoroethyl)-1H-pyrazol-4-yl)propionyl)pyridin-3-yl)acetamide]"
17,0.01 to 0.05,CCS(=O)(=O)c1ccc(CC(=O)Nc2ccc(C(=O)C(C)(C)c3nccs3)nc2)cc1 [Compound I-36]
18,> 1,CCS(=O)(=O)c1ccc(CC(=O)Nc2ccc(C(=O)C(C)(C)n3ccc(C)n3)nc2)cc1 [Compound I-38]
19,> 1,"CCS(=O)(=O)c1ccc(CC(=O)Nc2ccc(C(=O)C(F)(F)c3ccc(Cl)cc3)nc2)cc1 [Compound I-39, N-(6-(2-(4-chlorophenyl)-2,2-difluoroacetyl)pyridin-3-yl)-2-(4-(ethylsulfonyl)phenyl)acetamide]"

# — patent US20240317686A1, “RORyT MODULATOR, AND PREPARATION METHOD THEREFOR AND APPLICATION THEREOF” (SHANGHAI PHARMACEUTICALS HOLDING CO., LTD., priority 2020, published 2024)
